This note sets out measurements from patent US20250163077A1, “MEMBRANE-ASSOCIATED TYROSINE- AND THREONINE-SPECIFIC CDC2-INHIBITORY KINASE (PKMYT1) INHIBITORS AND USES THEREOF” (Insilico Medicine IP Limited, priority 2022, published 2025).

Structures are written as SMILES.

The target in assay [1] is WEE1 (Homo sapiens (Human), UniProt P30291). Nature of the assay: WEE1 ADP-Glo Assay. It counts as biochemical. The following applies: compound 10 μM to 0.5 nM. The method, then:
Compound serial dilution is performed by Echo, and the final concentrations vary from 10 μM to 0.5 nM. This was filled by the addition of 5 μL/well of Enzyme solution to the assay plate containing the compound. The plate was centrifuged at 1000 rpm for 1 minute, and incubate 15 minutes at 25° C. Then 5 μL/well of substrate solution was added to initiate the reaction, and incubate for 60 minutes at 25° C. Next 10 μL kinase detection reagent was added into the assay plate, the plate was centrifuged at 1000 rpm for 1 minute, and incubate for 60 minutes at […]. The assay plate was read on Envision for US LUM as RLU.

Assay [2] deals with PKMYT1 (Homo sapiens (Human), UniProt Q99640). Nature of the assay: PKMYT1 HTRF Assay. It counts as binding. The following applies: Tracer 178, compound 10 μM to 0.5 nM, read-out: MYT1 HTRF IC50. On the procedure:
Compound serial dilution is performed by Echo, and the final concentrations vary from 10 μM to 0.5 nM. This was filled by the addition of 5 μL/well of Enzyme solution to the assay plate containing the compound. The plate was centrifuged at 1000 rpm for 1 minute, and incubate 15 minutes at 25° C. […] Next 5 μL GST-Tb was added into the assay plate, the plate was centrifuged at 1000 rpm for 1 minute, and incubate for 15 minutes at 25° C. The assay plate was read on Envision.

Chain of PKMYT1 (Q99640 whole entry): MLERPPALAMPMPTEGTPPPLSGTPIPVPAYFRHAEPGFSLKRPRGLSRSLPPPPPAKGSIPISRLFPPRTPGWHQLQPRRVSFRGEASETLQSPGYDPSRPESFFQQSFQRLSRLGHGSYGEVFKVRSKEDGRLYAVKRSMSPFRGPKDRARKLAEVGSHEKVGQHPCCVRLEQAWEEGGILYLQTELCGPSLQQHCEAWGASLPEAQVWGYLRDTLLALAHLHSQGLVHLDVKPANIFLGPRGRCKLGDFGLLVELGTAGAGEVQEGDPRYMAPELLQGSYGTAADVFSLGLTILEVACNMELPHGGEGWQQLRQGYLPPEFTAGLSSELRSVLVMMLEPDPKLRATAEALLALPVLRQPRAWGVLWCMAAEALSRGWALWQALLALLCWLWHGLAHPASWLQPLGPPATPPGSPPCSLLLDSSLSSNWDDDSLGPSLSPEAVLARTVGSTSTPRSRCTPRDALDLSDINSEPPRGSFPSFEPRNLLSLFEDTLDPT
Chain of WEE1 (P30291 whole entry): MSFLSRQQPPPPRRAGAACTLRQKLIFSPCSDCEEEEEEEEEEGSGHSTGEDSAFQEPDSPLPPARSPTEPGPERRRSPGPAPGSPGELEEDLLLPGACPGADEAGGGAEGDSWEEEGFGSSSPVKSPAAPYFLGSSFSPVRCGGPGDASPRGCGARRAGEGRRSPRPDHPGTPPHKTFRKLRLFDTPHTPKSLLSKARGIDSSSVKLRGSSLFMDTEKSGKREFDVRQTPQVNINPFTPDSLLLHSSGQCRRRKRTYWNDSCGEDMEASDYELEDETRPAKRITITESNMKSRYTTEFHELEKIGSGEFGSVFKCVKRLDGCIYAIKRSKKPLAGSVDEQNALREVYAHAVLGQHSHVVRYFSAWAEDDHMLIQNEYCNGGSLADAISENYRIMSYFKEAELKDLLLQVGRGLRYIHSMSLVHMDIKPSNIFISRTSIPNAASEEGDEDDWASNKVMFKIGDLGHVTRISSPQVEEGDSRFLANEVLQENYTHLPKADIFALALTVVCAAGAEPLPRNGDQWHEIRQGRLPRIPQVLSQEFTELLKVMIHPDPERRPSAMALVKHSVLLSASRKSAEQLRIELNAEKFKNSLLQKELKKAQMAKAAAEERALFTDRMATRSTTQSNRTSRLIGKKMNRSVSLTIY

On to `Cc1ccc(O)c(C)c1-n1c(N)c(C(=O)N2CCc3ncsc3C2)c2nc(C)c(C)nc21` [Example 5, (6-amino-5-(3-hydroxy-2,6-dimethylphenyl)-2,3-dimethyl-5H-pyrrolo[2,3-b]pyrazin-7-yl)(6,7-dihydrothiazolo[5,4-c]pyridin-5(4H)-yl)methanone], for which the IC50 in assay [1] was more than 10000 nM; in assay [2], 10 to 50 nM.
Regarding `Cc1ccc(O)c(C)c1-n1c(N)c(C(=O)N2CCc3nn(C)cc3C2)c2nc(C)c(C)nc21` [Example 6, (6-amino-5-(3-hydroxy-2,6-dimethylphenyl)-2,3-dimethyl-5H-pyrrolo[2,3-b]pyrazin-7-yl)(2-methyl-2,4,6,7-tetrahydro-5H-pyrazolo[4,3-c]pyridin-5-yl)methanone], the results for the IC50 in assay [1] and in assay [2] were more than 10000 nM and 10 to 50 nM, respectively.
The like results for `Cc1ccc(O)c(C)c1-n1c(N)c(C(=O)N2CCc3ncccc3C2)c2nc(C)c(C)nc21` [Example 7, (6-amino-5-(3-hydroxy-2,6-dimethylphenyl)-2,3-dimethyl-5H-pyrrolo[2,3-b]pyrazin-7-yl)(7,8-dihydro-1,6-naphthyridin-6(5H)-yl)methanone] were, in that order, more than 10000 nM and less than 10 nM.
The like results for `Cc1ccc(O)c(C)c1-n1c(N)c(C(=O)N2CCc3ncsc3C2)c2cc(Cl)cnc21` [Example 9, (2-amino-5-chloro-1-(3-hydroxy-2,6-dimethylphenyl)-1H-pyrrolo[2,3-b]pyridin-3-yl)(6,7-dihydrothiazolo[5,4-c]pyridin-5(4H)-yl)methanone] were, in that order, more than 10000 nM and 10 to 50 nM.
Consider `Cc1nc2n(n1)CCN(C(=O)c1c(N)n(-c3c(C)ccc(O)c3C)c3ncc(Cl)cc13)C2` [Example 10, (2-amino-5-chloro-1-(3-hydroxy-2,6-dimethylphenyl)-1H-pyrrolo[2,3-b]pyridin-3-yl)(2-methyl-5,6-dihydro-[1,2,4]triazolo[1,5-a]pyrazin-7(8H)-yl)methanone], for which the IC50 was more than 10000 nM in assay [1] and 10 to 50 nM in assay [2].
Turning to `Cc1cc2n(n1)CCN(C(=O)c1c(N)n(-c3c(C)ccc(O)c3C)c3ncc(Cl)cc13)C2` [Example 11, (2-amino-5-chloro-1-(3-hydroxy-2,6-dimethylphenyl)-1H-pyrrolo[2,3-b]pyridin-3-yl)(2-methyl-6,7-dihydropyrazolo[1,5-a]pyrazin-5(4H)-yl)methanone], the IC50 in assay [1] is more than 10000 nM; in assay [2] it was 10 to 50 nM.
Regarding `Cc1ccc(O)c(C)c1-n1c(N)c(C(=O)N2CCn3nc(C(F)(F)F)nc3C2)c2cc(Cl)cnc21` [Example 12, (2-amino-5-chloro-1-(3-hydroxy-2,6-dimethylphenyl)-1H-pyrrolo[2,3-b]pyridin-3-yl)(2-(trifluoromethyl)-5,6-dihydro-[1,2,4]triazolo[1,5-a]pyrazin-7(8H)-yl)methanone], the values for the IC50 in assay [1] and in assay [2] were more than 10000 nM and 10 to 50 nM, respectively.
Take `Cc1ccc(O)c(C)c1-n1c(N)c(C(=O)N2CCn3ncc(CO)c3C2)c2nc(C)c(C)nc21` [Example 16, (6-amino-5-(3-hydroxy-2,6-dimethylphenyl)-2,3-dimethyl-5H-pyrrolo[2,3-b]pyrazin-7-yl)(3-(hydroxymethyl)-6,7-dihydropyrazolo[1,5-a]pyrazin-5(4H)-yl)methanone]: the figures for the IC50 in assay [1] and in assay [2] were more than 10000 nM and less than 10 nM, respectively.
For `Cc1ccc(O)c(C)c1-n1c(N)c(C(=O)N2CCn3nc(C(C)(C)O)cc3C2)c2nc(C)c(C)nc21` [Example 19], the IC50 in assay [2] was in the range of 500 to 5000 nM.
On to `Cc1ccc(O)c(C)c1-n1c(N)c(C(=O)N2CCn3nccc3C2C)c2nc(C)c(C)nc21` (stereo not drawn) [Example 26, (6-amino-5-(3-hydroxy-2,6-dimethylphenyl)-2,3-dimethyl-5H-pyrrolo[2,3-b]pyrazin-7-yl)(4-methyl-6,7-dihydropyrazolo[1,5-a]pyrazin-5(4H)-yl)methanone], for which the results for the IC50 in assay [1] and in assay [2] were more than 10000 nM and 500 to 5000 nM, respectively.
The like results for `Cc1ccc(O)c(C)c1-n1c(N)c(C(=O)N2CCn3c(nnc3C(F)(F)F)C2)c2cc(Cl)cnc21` [Example 27, (2-amino-5-chloro-1-(3-hydroxy-2,6-dimethylphenyl)-1H-pyrrolo[2,3-b]pyridin-3-yl)(3-(trifluoromethyl)-5,6-dihydro-[1,2,4]triazolo[4,3-a]pyrazin-7(8H)-yl)methanone] were, in that order, more than 10000 nM and 50 to 500 nM.
The like results for `Cc1ccc(O)c(Cl)c1-n1c(N)c(C(=O)N2CCn3nccc3C2)c2nc(C)c(C)nc21` [Example 28, (6-amino-5-(2-chloro-3-hydroxy-6-methylphenyl)-2,3-dimethyl-5H-pyrrolo[2,3-b]pyrazin-7-yl)(6,7-dihydropyrazolo[1,5-a]pyrazin-5(4H)-yl)methanone] were, in that order, 5430 nM and less than 10 nM.
The like results for `Cc1cc(F)c(O)c(C)c1-n1c(N)c(C(=O)N2CCn3nccc3C2)c2nc(C)c(C)nc21` [Example 29, (6-amino-5-(4-fluoro-3-hydroxy-2,6-dimethylphenyl)-2,3-dimethyl-5H-pyrrolo[2,3-b]pyrazin-7-yl)(6,7-dihydropyrazolo[1,5-a]pyrazin-5(4H)-yl)methanone] were, in that order, more than 10000 nM and 10 to 50 nM.
Regarding `C=Cc1cnc2c(n1)c(C(=O)N1CCn3nccc3C1)c(N)n2-c1c(C)ccc(O)c1C` [Example 33, (6-amino-5-(3-hydroxy-2,6-dimethylphenyl)-2-vinyl-5H-pyrrolo[2,3-b]pyrazin-7-yl)(6,7-dihydropyrazolo[1,5-a]pyrazin-5(4H)-yl)methanone], the IC50 in assay [1] was more than 10000 nM; in assay [2] it was 10 to 50 nM.
The like results for `Cc1ccc(O)c(C)c1-n1c(N)c(C(=O)N2CCn3nccc3C2)c2nc(C(F)(F)F)ncc21` [Example 38, (6-amino-5-(3-hydroxy-2,6-dimethylphenyl)-2-(trifluoromethyl)-5H-pyrrolo[3,2-d]pyrimidin-7-yl)(6,7-dihydropyrazolo[1,5-a]pyrazin-5(4H)-yl)methanone] were, in that order, more than 10000 nM and 50 to 500 nM.
With `CC#Cc1nc2c(C(=O)N3CCn4nccc4C3)c(N)n(-c3c(C)ccc(O)c3C)c2nc1C` [Example 40, (6-amino-5-(3-hydroxy-2,6-dimethylphenyl)-3-methyl-2-(prop-1-yn-1-yl)-5H-pyrrolo[2,3-b]pyrazin-7-yl)(6,7-dihydropyrazolo[1,5-a]pyrazin-5(4H)-yl)methanone], in assay [2], the IC50 fell in the range of 10 to 50 nM.
